Test results: patent publication US4921871A, “Enolamides, pharmaceutical compositions and methods of use thereof for treating inflammation” (Warner-Lambert Company, priority 1987, dated 1990)

System: Human Leukocyte Lipoxygenase
Experiment: Human Leukocyte Lipoxygenase Assay (LDA-H)
Assay type: biochemical
Settings: 1.00 E -5 M
Description: Whole blood is collected from normal volunteers and spun in a refrigerated centrifuge for four minutes at 1°-6° C. at 3800 g. The buffy coat is manually separated and washed twice with chilled 0.83% NH4 Cl and centrifuged at 1000 RPM for ten minutes at 4° C. The white cell is suspended in culture media-EMEM supplemented with 6% Agamma human serum, tricine buffer, and neomycin and recentrifuged at 1000 g to yield a pellet containing the leukocytes used for the preparation of the acetone pentane powder.
The acetone-pentane powder is prepared utilizing a modification of the procedure reported for human platelet lipoxygenase. See Siegel, et al, Arachidonate Metabolism via Lipoxygenase and 12-L-hydro-peroxy-5 Eicosatetraenoic Acid Peroxidase Sensitive to Antiinflammatory Drugs, Proc. Natl. Acad. Sci., U.S.A. 77:308, 1980 and D. P. Wallach and V. R. Brown, A Novel Preparation of Human Platlet Lipoxygenase, Biochem. Biophys. Acta. 663:361, 1981. Buffy coat prepared above is resuspended in 5-7 volumes of cold 0.1M Tris buffer, pH 7.4 containing 0.154M NaCl. The suspension is centrifuged at 13,300 g for ten minutes at 4° C. The resultant pellet is retained, resuspended in five volumes of cold acetone, recentrifuged at 13,300 g and resuspended in five volumes of cold pentane. The pentane suspension is centrifuged for ten minutes at 13,300 g to give a pellet which is dried in the cold under vacuum with periodic pulverization. The dry powder is stable for several weeks when stored at -80° C.
Enzyme stock solution is prepared in the following manner. About 15 mg of the acetone-pentane powder is suspended in 4 ml of cold tris buffer (0.1M, pH 7.4), allowed to stand for five minutes, and homogenized thoroughly. The homogenate is sonicated three times for 15 seconds each time, diluted to 7 ml with cold tris buffer (0.1M, pH 7.4), and centrifuged at 4° C. for 60 minutes at 13,300 g. The supernatent is retained and diluted to a total of 10 ml with cold tris buffer (0.1M, pH 7.4) to give the stock enzyme solution. Additional dilutions of 2-50 fold are done as necessary to locate optimal enzyme reaction rate in the assay described below.
Substrate solution is prepared at 100 μM or 1.0 μM concentrations of arachidonic acid or linoleic acid in 0.1M tris buffer, pH 9.0 containing 20% ethanol.
The enzyme reaction is followed spectrophotometrically by the appearance of a conjugated diene product at 234 nm. The reaction is monitored at 24° C. using a Gilford Model 2600 spectrophotometer. […] The effects of inhibitors on the reaction are compared with control reactions run under indentical conditions. Routinely, each compounds of the present invention is incubated with the enzyme for five minutes prior to addition of substrate to initiate the reaction. Inhibition expressed as IC50 as molar concentration of the compound required to reduce reaction rate to 50% control.

SMILES | LDAH, % Inhibition
COc1ccc(CCc2ccc(NC(=O)C(=O)C3=C(O)c4ccccc4S(=O)(=O)C3)cc2)cc1OC [Example 3, N-[4-[2-(3,4-Dimethoxyphenyl)ethyl)phenyl]-4-hydroxy-α-oxo-2H-1-benzothiopyran-3-acetamide, 1,1-dioxide] | 0.0%

Same assay, conditions: 2.50 E -5 M

SMILES | LDAH, % Inhibition
COc1ccc(CCc2ccc(NC(=O)C(=O)C3=C(O)c4ccccc4S(=O)(=O)C3)cc2)cc1OC [Example 3, N-[4-[2-(3,4-Dimethoxyphenyl)ethyl)phenyl]-4-hydroxy-α-oxo-2H-1-benzothiopyran-3-acetamide, 1,1-dioxide] | 0.0%
O=C(Nc1ccc(Cc2ccc(O)c(O)c2)cc1)C1CS(=O)(=O)c2ccccc2C1=O (centres unmarked) [Example 14, N-[4-[(3,4-Dihydroxyphenyl)methyl]phenyl]-3,4-dihydro-4-oxo-2H-1-benzothiopyran-3-carboxamide, 1,1-dioxide] | 0.0%
O=C(Nc1ccc(CCCCc2ccc(O)c(O)c2)cc1)C1CS(=O)(=O)c2ccccc2C1=O (centres unmarked) [Example 23, N-[4-[4-(3,4-Dihydroxyphenyl)butyl]phenyl]-3,4-dihydro-4-oxo-2H-1-benzothiopyran-3-carboxamide, 1,1-dioxide] | 0.0%
CCCCOc1ccc(CCc2ccc(NC(=O)C3CS(=O)(=O)c4ccccc4C3=O)cc2)cc1 (centres unmarked) [Example 48] | 0.0%
O=C(Nc1ccc(CCc2ccc3ccccc3c2)cc1)C1=C(O)c2ccccc2S(=O)(=O)C1 [Example 51, 4-Hydroxy-N-[4-[2-(2-naphthalenyl)ethyl]phenyl]-2H-1-benzothiopyran-3-carboxamide, 1,1-dioxide] | 0.0%
CCCCCCCCc1ccc(NC(=O)C2CS(=O)(=O)c3ccccc3C2=O)cc1 (centres unmarked) [Example 59, 3,4-Dihydro-N-(4-octylphenyl)-4-oxo-2H-1-benzothiopyran-3-carboxamide, 1,1-dioxide] | 0.0%
COc1ccc(CCc2ccc(NC(=O)C3Oc4cc5ccccc5cc4C3=O)cc2)cc1OC (centres unmarked) [Example 101, Naphtho[2,3-b]furan-2-carboxamide, N-[4-[2-(3,4-dimethoxyphenyl)ethyl]phenyl]-2,3-dihydroxy-3-oxo] | 0.0%
COc1ccc(CCc2ccc(NC(=O)C(=O)C3Oc4cc5ccccc5cc4C3=O)cc2)cc1OC (stereo not drawn) [Example 117, Naptho[2,3-b]furan-2-acetamide, N-[4-[2-(3,4-dimethoxyphenyl)ethyl]phenyl]-2,3-dihydro-α,3dioxo] | 0.0%
O=C(Nc1ccc(CCc2ccc(O)c(O)c2)cc1)C1Oc2c(n(-c3ccccc3)c3ccc(O)cc23)C1=O (centres unmarked) [Example 163, 2H-Furo[3,2-b]indole-2-carboxamide, N-[4-[2-(3,4-dihydroxyphenyl)ethyl]phenyl]-3,4-dihydro-7-hydroxy-3-oxo-4-phenyl] | 0.0%

Same assay, conditions: 8.00 E -5 M

SMILES | LDAH, % Inhibition
COc1ccccc1CCc1ccc(NC(=O)C2=C(O)c3ccccc3S(=O)(=O)C2)cc1 [Example 37] | 0.0%
Cc1ccccc1CCc1ccc(NC(=O)C2=C(O)c3ccccc3S(=O)(=O)C2)cc1 [Example 43] | 0.0%
Cc1ccc(CCc2ccc(NC(=O)C3CS(=O)(=O)c4ccccc4C3=O)cc2)cc1 (centres unmarked) [Example 45] | 0.0%
CCOC(=O)c1ccc(CCc2ccc(NC(=O)C3CS(=O)(=O)c4ccccc4C3=O)cc2)cc1 (centres unmarked) [Example 47, 4-[2-[4-[[(3,4-Dihydro-4-oxo-2H-1-benzothiopyran-3-yl)carbonyl]amino]phenyl]ethyl]benzoic acid, ethyl ester, 1,1-dioxide] | 0.0%
COc1ccc(CCc2ccc(NC(=O)C3CS(=O)(=O)c4ccccc4C3=O)cc2)cc1NC(C)=O (centres unmarked) [Example 50, N-[4-[2-(3-Acetylamino-4-methoxy)ethyl]phenyl]-3,4-dihydro-4-oxo-2H-1-benzothiopyran-3-carboxamide, 1,1-dioxide] | 0.0%
CCCCCCc1ccc(NC(=O)C2CS(=O)(=O)c3ccccc3C2=O)cc1 (centres unmarked) [Example 58, N-(4-Hexylphenyl)-3,4-dihydro-4-oxo-2H-1-benzothiopyran-3-carboxamide, 1-1-dioxide] | 0.0%
O=C(Nc1ccc(CCc2cccc(O)c2)cc1)C1CS(=O)(=O)c2ccccc2C1=O (centres unmarked) [Example 82] | 0.0%
COc1ccc(CCc2ccc(NC(=O)C(=O)c3oc4cc(OC)c(OC)cc4c3O)cc2)cc1OC [Example 115, 2-Benzofuranacetamide, N-[4-[2-(3,4-dimethoxyphenyl)ethyl]phenyl]-3-hydroxy-5,6-dimethoxy-α-oxo] | 0.0%

Same assay, conditions: conjugated diene at 234 nm, pH 9.0, 24 °C; read-out: LDAH, concentration for 50% inhibition (IC)

SMILES | IC50
O=C(Nc1ccc(CCCc2ccc(O)c(O)c2)cc1)C1CS(=O)(=O)c2ccccc2C1=O (centres unmarked) [Example 22] | 13 µM
CCCCCCCCCCc1ccc(NC(=O)C(=O)c2oc3cc(OC)c(OC)cc3c2O)cc1 [Example 119, 2-Benzofuranacetamide, N-[4-decylphenyl]-3-hydroxy-5,6-dimethoxy-α-oxo] | 0.0079 µM
